{"source": "patent US20220257603A1", "about": "“COMBINATION THERAPY FOR TREATING MTAP-DEFICIENT TUMORS” (Board of Regents, The University of Texas System, priority 2019, published 2022)", "key": {"[1]": {"system": "PD-L1", "experiment": "PD-L1 expression in vivo on MB49 tumors", "details": "FIG. 4C", "from_the_text": "(§1) For example, pemetrexed induced PD-L1 in MTAP-deficient bladder cancer cell lines (FIG. 4A). […] Based on this, FIG. 6 provides a proposed phase 2 trial schema for combination treatment with pemetrexed and an anti-PD-L1 therapy (e.g., avelumab)."}, "[2]": {"system": "MTAP-knockdown human tumors", "experiment": "Tumor growth in xenograft mouse model, MTAP-knockdown tumor", "format": "in vivo", "details": "FIG. 2E", "from_the_text": "(§2) Asterisk represents a patient that died of a car accident and thus was not evaluable.\n(§3) Pemetrexed inhibited MTAP-deficient human tumor growth (FIG. 2C) but not MTAP-wild type tumor growth (FIG. 2D) in a xenograft mouse model."}, "[3]": {"system": "MTAP-deficient human tumor", "experiment": "Tumor growth in xenograft mouse model, MTAP-deficient tumor", "format": "in vivo", "details": "FIG. 2C", "from_the_text": "as §2, §3"}, "[4]": {"system": "MTAP knockdown human bladder cell lines", "experiment": "Apoptosis (sub-G1 population) after MTAP knockdown in human bladder cancer cell lines", "format": "cell-based", "details": "FIG. 2B", "from_the_text": "as §2, §3"}, "[5]": {"system": "MTAP-deficient bladder cancer vs MTAP-wild type bladder cancer", "experiment": "Response of bladder cancer patients to pemetrexed (RECIST)", "format": "in vivo, human", "from_the_text": "as §2, §3"}, "[6]": {"system": "MTAP-wild type tumor", "experiment": "Tumor growth in xenograft mouse model, MTAP-wild type tumor", "format": "in vivo", "details": "FIG. 2D", "from_the_text": "as §2, §3"}, "[7]": {"system": "PD-L1", "experiment": "PD-L1 expression in MTAP-deficient bladder cancer cell lines after pemetrexed", "format": "cell-based", "details": "FIG. 4A", "from_the_text": "as §1"}, "[8]": {"system": "MB49 tumors", "experiment": "Immune cells in MB49 tumors with in vivo pemetrexed treatment", "details": "FIG. 4B", "from_the_text": "as §1"}, "[9]": {"system": "MTAP-deficient vs. MTAP-wild type human bladder cancer cell lines", "experiment": "Apoptosis (sub-G1 population) after pemetrexed in human bladder cancer cell lines", "format": "cell-based", "details": "FIG. 2A", "from_the_text": "as §2, §3"}, "[10]": {"system": "PD-L1", "experiment": "PD-L1 expression on tumor cells with anti-folate agents", "details": "both in vitro and in vivo", "from_the_text": "Many types of tumors contain homozygous deletion of the methylthioadenosine phosphorylase (MTAP) gene, which encodes an essential enzyme to catalyze methylthioadenosine (MTA) in the salvage pathway for adenosine synthesis."}, "[11]": {"system": "mouse CD8 T cells", "experiment": "Cytokine production by activated mouse CD8 T cells", "format": "cell-based", "procedure": "MTA was added into culture for 72 h.\nMTA was added into culture for 72 h. […] Therefore, a triple combination therapy with pemetrexed +A2BR antagonists+anti-PD-L1 (or anti-PD1) can be ultra-effective for MTAP-deficient malignancies through five different mechanisms: (1) direct cytotoxicity (from pemetrexed); (2) decrease of MTA levels (from pemetrexed cytotoxicity) and thus alleviation of inhibition of IFN signaling and T cell function; (3) increases in levels of tumor PD-L1 expression (from pemetrexed); (4) T cell activation by mitigating MTA inhibition (A2BR antagonists); and (5) further T cell activation by inhibiting checkpoint molecule PD-L1 (anti-PD-L1 or anti-PD1)."}, "[12]": {"system": "activated human T cells", "details": "incubation with MTA; cited from earlier work"}}, "data": [{"smiles": "Nc1nc2[nH]cc(CCc3ccc(C(=O)N[C@@H](CCC(=O)O)C(=O)O)cc3)c2c(=O)[nH]1", "note": "[Pemetrexed]", "values": [{"measurement": "PD-L1 expression in vivo", "setting": "[1]", "value": "induced PD-L1"}, {"measurement": "tumor growth", "setting": "[2]", "value": "inhibited growth"}, {"measurement": "tumor growth", "setting": "[3]", "value": "inhibited"}, {"measurement": "apoptosis with pemetrexed treatment", "setting": "[4]", "value": "significant apoptosis"}, {"measurement": "response rate, MTAP-deficient vs MTAP-wild type bladder cancer patients", "setting": "[5]; combined retrospective and prospective data, FIG. 2H", "value": "higher response rate"}, {"measurement": "response rate, MTAP-deficient vs MTAP-wild type bladder cancer patients", "setting": "[5]; prospective data, FIG. 2G", "value": "higher response rate"}, {"measurement": "response rate, MTAP-deficient vs MTAP-wild type bladder cancer patients", "setting": "[5]; retrospective data, FIG. 2F", "value": "higher response rate"}, {"measurement": "tumor growth", "setting": "[6]", "value": "not"}, {"measurement": "PD-L1 expression", "setting": "[7]", "value": "induced PD-L1"}, {"measurement": "CD4/8 T cells in tumors", "setting": "[8]", "value": "increased"}, {"measurement": "MDSCs in tumors", "setting": "[8]", "value": "decreased"}, {"measurement": "dendritic cells in tumors", "setting": "[8]", "value": "increased"}, {"measurement": "macrophages in tumors", "setting": "[8]", "value": "increased"}, {"measurement": "potency in inducing apoptosis (sub-G1 population), MTAP-deficient vs. MTAP-wild type", "setting": "[9]", "value": "at least 40 fold"}, {"measurement": "PD-L1 expression on tumor cells", "setting": "[10]", "value": "induce PD-L1 expression"}]}, {"smiles": "N#Cc1c(N)nc(SCC(N)=O)c(C#N)c1-c1ccc(OCC2CC2)cc1", "note": "[Bay60-6385]", "values": [{"measurement": "production of INF-γ", "setting": "[11]; mouse CD8 T cells activated with anti-CD3/anti-CD28, 72 h, FIGS. 5A & 7A", "value": "mimic this inhibition"}, {"measurement": "production of TNF-α", "setting": "[11]; mouse CD8 T cells activated with anti-CD3/anti-CD28, 72 h, FIGS. 5B & 7B", "value": "mimic this inhibition"}]}, {"smiles": "CSC[C@H]1O[C@@H](n2cnc3c(N)ncnc32)[C@H](O)[C@@H]1O", "note": "[MTA, methylthioadenosine]", "values": [{"measurement": "cytotoxicity to activated human T cells", "setting": "[12]", "value": "cytotoxic"}]}, {"smiles": "CN(Cc1cnc2nc(N)nc(N)c2n1)c1ccc(C(=O)N[C@@H](CCC(=O)O)C(=O)O)cc1", "note": "[methotrexate, Methotrexate]", "values": [{"measurement": "PD-L1 expression on tumor cells", "setting": "[10]", "value": "induce PD-L1 expression"}]}, {"smiles": "CCCn1c(=O)[nH]c2nc(-c3ccc(S(=O)(=O)N4CCN(c5ccc(Cl)cc5)CC4)cc3)[nH]c2c1=O", "note": "[PSB-603]", "values": [{"measurement": "rescue of MTA-induced inhibition on the production of INF-γ", "setting": "[11]; PSB603+MTA, mouse CD8 T cells, FIG. 7A", "value": "partially rescue"}, {"measurement": "rescue of MTA-induced inhibition on the production of TNF-α", "setting": "[11]; PSB603+MTA, mouse CD8 T cells, FIG. 7B", "value": "partially rescue"}]}]}
